{"source": "ChEMBL document CHEMBL5537111", "about": "“Structure and function of SARS-CoV and SARS-CoV-2 main proteases and their inhibition: A comprehensive review” (Eur J Med Chem, 2023)", "assay": "Inhibition of SARS-CoV-2 3CL protease Q189A mutant by FRET assay", "set-up": "species or system Severe acute respiratory syndrome coronavirus 2", "data": [{"smiles": "CC1(C)CCC(CN2CCN(c3ccc(C(=O)NS(=O)(=O)c4ccc(NCC5CCOCC5)c([N+](=O)[O-])c4)c(Oc4cnc5[nH]ccc5c4)c3)CC2)=C(c2ccc(Cl)cc2)C1", "note": "[VENETOCLAX]", "values": [{"measurement": "IC50", "result": 3.18, "unit": "µM"}]}]}
